Experimental data taken from paper PMC9829398 (Plant Biotechnology Journal, 2022).
“Also recorded” adds a separate entry of the source.

Assays:
tobacco roots = experiment: RNA-seq of tobacco roots (DEGs, GO and KEGG classification and enrichment); format: in vivo
Ralstonia solanacearum [1] = format: in vivo; settings: Arabidopsis seedlings pretreated with 5 μM, 4 days after inoculation
tobacco = experiment: Growth of tobacco (shoot and root fresh weight, Day 25); settings: 5 μM irrigated twice
Ralstonia solanacearum [2] = format: in vivo, tobacco; settings: 5 μM irrigated twice two days after inoculation
FER‐CD = FER‐CD (Arabidopsis thaliana, UniProt Q9SCZ4); experiment: biochemical
THE1‐CD = experiment: THE1-CD kinase activity (autophosphorylation); format: biochemical, Arabidopsis thaliana; settings: 5 μM
Ralstonia solanacearum [3] = format: in vivo, tobacco; settings: roots pretreated twice with 3 mL of 5 μM
[4] = KEGG ko00040 Pentose and glucuronate interconversions
[5] = KEGG ko00052 Galactose metabolism
[6] = KEGG ko00062 Fatty acid elongation
[7] = KEGG ko00071 Fatty acid degradation
[8] = KEGG ko00073 Cutin, suberine and wax biosynthesis
[9] = KEGG ko00100 Steroid biosynthesis
[10] = KEGG ko00250 Alanine, aspartate and glutamate metabolism
[11] = KEGG ko00270 Cysteine and methionine metabolism
[12] = KEGG ko00290 Valine, leucine and isoleucine biosynthesis
[13] = KEGG ko00330 Arginine and proline metabolism
[14] = KEGG ko00350 Tyrosine metabolism
[15] = KEGG ko00360 Phenylalanine metabolism
[16] = KEGG ko00410 beta-Alanine metabolism
[17] = KEGG ko00430 Taurine and hypotaurine metabolism
[18] = KEGG ko00460 Cyanoamino acid metabolism
[19] = KEGG ko00480 Glutathione metabolism
[20] = KEGG ko00500 Starch and sucrose metabolism
[21] = KEGG ko00511 Other glycan degradation
[22] = KEGG ko00520 Amino sugar and nucleotide sugar metabolism
[23] = KEGG ko00531 Glycosaminoglycan degradation
[24] = KEGG ko00561 Glycerolipid metabolism
[25] = KEGG ko00564 Glycerophospholipid metabolism
[26] = KEGG ko00590 Arachidonic acid metabolism
[27] = KEGG ko00591 Linoleic acid metabolism
[28] = KEGG ko00592 alpha-Linolenic acid metabolism
[29] = KEGG ko00603 Glycosphingolipid biosynthesis - globo series
[30] = KEGG ko00604 Glycosphingolipid biosynthesis - ganglio series
[31] = KEGG ko00650 Butanoate metabolism
[32] = KEGG ko00730 Thiamine metabolism
[33] = KEGG ko00760 Nicotinate and nicotinamide metabolism
[34] = KEGG ko00770 Pantothenate and CoA biosynthesis
[35] = KEGG ko00904 Diterpenoid biosynthesis
[36] = KEGG ko00905 Brassinosteroid biosynthesis
[37] = KEGG ko00906 Carotenoid biosynthesis
[38] = KEGG ko00908 Zeatin biosynthesis
[39] = KEGG ko00909 Sesquiterpenoid and triterpenoid biosynthesis
[40] = KEGG ko00910 Nitrogen metabolism
[41] = KEGG ko00940 Phenylpropanoid biosynthesis
[42] = KEGG ko00941 Flavonoid biosynthesis
[43] = KEGG ko00950 Isoquinoline alkaloid biosynthesis
[44] = KEGG ko00960 Tropane, piperidine and pyridine alkaloid biosynthesis
[45] = KEGG ko00980 Metabolism of xenobiotics by cytochrome P450
[46] = KEGG ko00982 Drug metabolism - cytochrome P450
[47] = KEGG ko01040 Biosynthesis of unsaturated fatty acids
[48] = KEGG ko03320 PPAR signaling pathway
[49] = KEGG ko04010 MAPK signaling pathway
[50] = KEGG ko04011 MAPK signaling pathway - yeast
[51] = KEGG ko04020 Calcium signaling pathway
[52] = KEGG ko04022 cGMP-PKG signaling pathway
[53] = KEGG ko04075 Plant hormone signal transduction
[54] = KEGG ko04140 Regulation of autophagy
[55] = KEGG ko04211 Longevity regulating pathway
[56] = KEGG ko04212 Longevity regulating pathway - worm
[57] = KEGG ko04370 VEGF signaling pathway
[58] = KEGG ko04380 Osteoclast differentiation
[59] = KEGG ko04614 Renin-angiotensin system
[60] = KEGG ko04626 Plant-pathogen interaction
[61] = KEGG ko04650 Natural killer cell mediated cytotoxicity
[62] = KEGG ko04660 T cell receptor signaling pathway
[63] = KEGG ko04662 B cell receptor signaling pathway
[64] = KEGG ko04712 Circadian rhythm - plant
[65] = KEGG ko04720 Long-term potentiation
[66] = KEGG ko04723 Retrograde endocannabinoid signaling
[67] = KEGG ko04724 Glutamatergic synapse
[68] = KEGG ko04810 Regulation of actin cytoskeleton
[69] = KEGG ko04920 Adipocytokine signaling pathway
[70] = KEGG ko04921 Oxytocin signaling pathway
[71] = KEGG ko04922 Glucagon signaling pathway
[72] = KEGG ko04974 Protein digestion and absorption
[73] = KEGG ko04975 Fat digestion and absorption
[74] = tobacco roots, 5 μM irrigated twice, coregulated genes, vs DMSO

Sequence of FER‐CD (Q9SCZ4 469-895): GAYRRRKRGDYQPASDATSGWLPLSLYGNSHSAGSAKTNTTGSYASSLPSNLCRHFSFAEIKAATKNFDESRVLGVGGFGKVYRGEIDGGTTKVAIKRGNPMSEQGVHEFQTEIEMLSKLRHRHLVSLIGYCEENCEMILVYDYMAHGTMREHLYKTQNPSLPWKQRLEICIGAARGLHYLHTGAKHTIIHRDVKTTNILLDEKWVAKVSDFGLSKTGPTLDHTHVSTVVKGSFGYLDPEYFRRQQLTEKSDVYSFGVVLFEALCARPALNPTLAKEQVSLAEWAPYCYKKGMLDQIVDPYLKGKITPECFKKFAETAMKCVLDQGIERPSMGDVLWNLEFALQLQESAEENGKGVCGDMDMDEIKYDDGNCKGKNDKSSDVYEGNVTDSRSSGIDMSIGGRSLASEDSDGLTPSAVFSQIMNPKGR

Structure (SMILES): c1nc2nc(Nc3ccc(N4CCOCC4)cc3)nc(NC3CCCCC3)c2[nH]1 [Reversine]
- Enrichment_score (tobacco roots; [4]): 2.934
- ListHits (tobacco roots; [4]): 15
- Enrichment_score (tobacco roots; [5]): 3.3846
- ListHits (tobacco roots; [5]): 8
- Enrichment_score (tobacco roots; [6]): 4.956
- ListHits (tobacco roots; [6]): 8
- Enrichment_score (tobacco roots; [7]): 1.21
- ListHits (tobacco roots; [7]): 2
- Enrichment_score (tobacco roots; [8]): 7.653
- ListHits (tobacco roots; [8]): 15
- Enrichment_score (tobacco roots; [9]): 3.7618
- ListHits (tobacco roots; [9]): 6
- Enrichment_score (tobacco roots; [10]): 2.781
- ListHits (tobacco roots; [10]): 7
- Enrichment_score (tobacco roots; [11]): 1.037
- ListHits (tobacco roots; [11]): 5
- Enrichment_score (tobacco roots; [12]): 0.913
- ListHits (tobacco roots; [12]): 1
- Enrichment_score (tobacco roots; [13]): 1.626
- ListHits (tobacco roots; [13]): 4
- Enrichment_score (tobacco roots; [14]): 1.051
- ListHits (tobacco roots; [14]): 2
- Enrichment_score (tobacco roots; [15]): 3.252
- ListHits (tobacco roots; [15]): 6
- Enrichment_score (tobacco roots; [16]): 0.7434
- ListHits (tobacco roots; [16]): 2
- Enrichment_score (tobacco roots; [17]): 2.082
- ListHits (tobacco roots; [17]): 1
- Enrichment_score (tobacco roots; [18]): 1.927
- ListHits (tobacco roots; [18]): 5
- Enrichment_score (tobacco roots; [19]): 0.8174
- ListHits (tobacco roots; [19]): 3
- Enrichment_score (tobacco roots; [20]): 2.951
- ListHits (tobacco roots; [20]): 33
- Enrichment_score (tobacco roots; [21]): 1.531
- ListHits (tobacco roots; [21]): 1
- Enrichment_score (tobacco roots; [22]): 2.188
- ListHits (tobacco roots; [22]): 14
- Enrichment_score (tobacco roots; [23]): 1.406
- ListHits (tobacco roots; [23]): 1
- Enrichment_score (tobacco roots; [24]): 2.775
- ListHits (tobacco roots; [24]): 8
- Enrichment_score (tobacco roots; [25]): 3.221
- ListHits (tobacco roots; [25]): 13
- Enrichment_score (tobacco roots; [26]): 3.154
- ListHits (tobacco roots; [26]): 2
- Enrichment_score (tobacco roots; [27]): 6.195
- ListHits (tobacco roots; [27]): 5
- Enrichment_score (tobacco roots; [28]): 5.4777
- ListHits (tobacco roots; [28]): 12
- Enrichment_score (tobacco roots; [29]): 2.739
- ListHits (tobacco roots; [29]): 1
- Enrichment_score (tobacco roots; [30]): 5.782
- ListHits (tobacco roots; [30]): 1
- Enrichment_score (tobacco roots; [31]): 2.041
- ListHits (tobacco roots; [31]): 2
- Enrichment_score (tobacco roots; [32]): 1.859
- ListHits (tobacco roots; [32]): 1
- Enrichment_score (tobacco roots; [33]): 2.168
- ListHits (tobacco roots; [33]): 2
- Enrichment_score (tobacco roots; [34]): 0.8531
- ListHits (tobacco roots; [34]): 1
- Enrichment_score (tobacco roots; [35]): 1.837
- ListHits (tobacco roots; [35]): 3
- Enrichment_score (tobacco roots; [36]): 1.735
- ListHits (tobacco roots; [36]): 1
- Enrichment_score (tobacco roots; [37]): 3.294
- ListHits (tobacco roots; [37]): 5
- Enrichment_score (tobacco roots; [38]): 0.9637
- ListHits (tobacco roots; [38]): 2
- Enrichment_score (tobacco roots; [39]): 3.186
- ListHits (tobacco roots; [39]): 3
- Enrichment_score (tobacco roots; [40]): 1.837
- ListHits (tobacco roots; [40]): 3
- Enrichment_score (tobacco roots; [41]): 6.155
- ListHits (tobacco roots; [41]): 55
- Enrichment_score (tobacco roots; [42]): 0.9548
- ListHits (tobacco roots; [42]): 2
- Enrichment_score (tobacco roots; [43]): 1.706
- ListHits (tobacco roots; [43]): 2
- Enrichment_score (tobacco roots; [44]): 1.652
- ListHits (tobacco roots; [44]): 2
- Enrichment_score (tobacco roots; [45]): 1.323
- ListHits (tobacco roots; [45]): 3
- Enrichment_score (tobacco roots; [46]): 1.679
- ListHits (tobacco roots; [46]): 4
- Enrichment_score (tobacco roots; [47]): 1.369
- ListHits (tobacco roots; [47]): 2
- Enrichment_score (tobacco roots; KEGG ko02010 ABC transporters): 2.788
- ListHits (tobacco roots; KEGG ko02010 ABC transporters): 3
- Enrichment_score (tobacco roots; [48]): 1.1072
- ListHits (tobacco roots; [48]): 1
- Enrichment_score (tobacco roots; [49]): 0.9727
- ListHits (tobacco roots; [49]): 2
- Enrichment_score (tobacco roots; [50]): 1.665
- ListHits (tobacco roots; [50]): 4
- Enrichment_score (tobacco roots; [51]): 0.9376
- ListHits (tobacco roots; [51]): 2
- Enrichment_score (tobacco roots; [52]): 0.7381
- ListHits (tobacco roots; [52]): 2
- Enrichment_score (tobacco roots; [53]): 1.411
- ListHits (tobacco roots; [53]): 18
- Enrichment_score (tobacco roots; [54]): 0.6505
- ListHits (tobacco roots; [54]): 1
- Enrichment_score (tobacco roots; KEGG ko04146 Peroxisome): 1.786
- ListHits (tobacco roots; KEGG ko04146 Peroxisome): 7
- Enrichment_score (tobacco roots; [55]): 1.229
- ListHits (tobacco roots; [55]): 3
- Enrichment_score (tobacco roots; [56]): 1.436
- ListHits (tobacco roots; [56]): 4
- Enrichment_score (tobacco roots; KEGG ko04360 Axon guidance): 1.183
- ListHits (tobacco roots; KEGG ko04360 Axon guidance): 2
- Enrichment_score (tobacco roots; [57]): 1.8259
- ListHits (tobacco roots; [57]): 2
- Enrichment_score (tobacco roots; [58]): 1.8259
- ListHits (tobacco roots; [58]): 2
- Enrichment_score (tobacco roots; [59]): 7.434
- ListHits (tobacco roots; [59]): 2
- Enrichment_score (tobacco roots; [60]): 1.449
- ListHits (tobacco roots; [60]): 12
- Enrichment_score (tobacco roots; [61]): 1.9637
- ListHits (tobacco roots; [61]): 2
- Enrichment_score (tobacco roots; [62]): 2.365
- ListHits (tobacco roots; [62]): 2
- Enrichment_score (tobacco roots; [63]): 1.794
- ListHits (tobacco roots; [63]): 2
- Enrichment_score (tobacco roots; [64]): 1.03
- ListHits (tobacco roots; [64]): 2
- Enrichment_score (tobacco roots; [65]): 1.352
- ListHits (tobacco roots; [65]): 2
- Enrichment_score (tobacco roots; [66]): 1.239
- ListHits (tobacco roots; [66]): 1
- Enrichment_score (tobacco roots; [67]): 2.42
- ListHits (tobacco roots; [67]): 4
- Enrichment_score (tobacco roots; KEGG ko04727 GABAergic synapse): 1.466
- ListHits (tobacco roots; KEGG ko04727 GABAergic synapse): 2
- Enrichment_score (tobacco roots; [68]): 1.14
- ListHits (tobacco roots; [68]): 3
- Enrichment_score (tobacco roots; [69]): 2.775
- ListHits (tobacco roots; [69]): 4
- Enrichment_score (tobacco roots; [70]): 0.8531
- ListHits (tobacco roots; [70]): 2
- Enrichment_score (tobacco roots; [71]): 0.5913
- ListHits (tobacco roots; [71]): 2
- Enrichment_score (tobacco roots; KEGG ko04924 Renin secretion): 1.859
- ListHits (tobacco roots; KEGG ko04924 Renin secretion): 2
- Enrichment_score (tobacco roots; [72]): 6.938
- ListHits (tobacco roots; [72]): 2
- Enrichment_score (tobacco roots; [73]): 4.337
- ListHits (tobacco roots; [73]): 1
- Enrichment_score (tobacco roots; KEGG ko04976 Bile secretion): 2.838
- ListHits (tobacco roots; KEGG ko04976 Bile secretion): 3
- Expression levels of growth-related genes in tobacco roots (tobacco roots; RNA-seq, GO growth, vs DMSO): differentially elevated the expression levels of most growth‐related genes
- Expression levels of RBOHs, MYB44, TGA2, WRKY19, EFR, FLS2, PR1 and PDF1.4 in tobacco roots (tobacco roots; RNA-seq, vs DMSO): significantly increased the expression levels
- Antioxidant genes (GO antioxidant activity) up-regulated (tobacco roots; [74]): 60 of 61
- Immune genes (GO immune system process) up-regulated (tobacco roots; [74]): 70 of 82
- Environmental adaptation-related genes (KEGG) up-regulated (tobacco roots; tobacco roots, coregulated genes, vs DMSO): 22 of 29
- Cotyledon bleaching caused by R. solanacearum (Ralstonia solanacearum [1]): effectively prevented the cotyledon bleaching
- Growth (biomass) of tobacco shoots and roots (tobacco): did not observably affect the biomass
- Effect on established tobacco bacterial wilt (Ralstonia solanacearum [2]): could not completely prevent the occurrence of the diseases or cure already diseased plants
- Kd (FER‐CD): 1770 nM
- Inhibition rate of THE1-CD kinase activity (THE1‐CD): lower than 55%
- Control of tobacco bacterial wilt (Ralstonia solanacearum [3]): alleviated tobacco bacterial wilt; also recorded: alleviated soil‐borne diseases
